One may read the IC50 as the concentration needed to halve the response being measured. In general, melting point refers to the temperature, or range, at which the solid turns liquid.

One data set deals with T1, 17-Beta HSD II Enzyme (Homo sapiens, UniProt P37059).
T1 construct: made in house; host or cells: insect cells (baculovirus)
T1 sequence (P37059 1-387): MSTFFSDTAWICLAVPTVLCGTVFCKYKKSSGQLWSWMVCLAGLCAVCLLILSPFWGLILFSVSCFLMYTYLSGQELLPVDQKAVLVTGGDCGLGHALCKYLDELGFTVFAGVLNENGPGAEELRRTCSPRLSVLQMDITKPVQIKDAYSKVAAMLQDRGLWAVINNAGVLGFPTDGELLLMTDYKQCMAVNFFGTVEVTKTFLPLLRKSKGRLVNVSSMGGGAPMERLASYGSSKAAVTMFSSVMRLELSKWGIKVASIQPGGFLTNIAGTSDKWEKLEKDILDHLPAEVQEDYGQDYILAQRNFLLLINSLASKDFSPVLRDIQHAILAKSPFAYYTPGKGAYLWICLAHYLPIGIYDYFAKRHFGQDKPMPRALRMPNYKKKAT
The data set is described as follows: Primary assay: inhibition of 17-Beta HSD II enzyme (estradiol/NAD, PMS:MTS colorimetric readout at 490 nm). The conditions noted are these: Table 7, baculovirus-expressed recombinant HSD II, estradiol substrate. The data set is classed as biochemical. The method, then: HSD II protein purification: The method for purification of baculovirus-expressed HSD II was standardized as follows. The insect cell pellet containing recombinant HSD II was lysed in 2.5 volumes of lysis buffer (40 mM Tris, pH 7.5, 1 mM EDTA, 2 mM DTT, 10 uM NAD) containing 500 uM AEBSF, 10 ug/ml aprotinin, 1 uM pepstatin A, and 100 uM leupeptin. The pellet was nutated for 30 min in this buffer. Subsequently, the pellet was homogenized with 15 strokes using a glass and teflon potter. The volume was doubled with a 2× sucrose/NaCl solution (500 mM sucrose, 300 mM NaCl in lysis buffer). After centrifugation at 10,000×g for 30 min, the supernatant was decanted and stored at −20° C. The pellet was resuspended in 2.5 volumes of lysis buffer containing 250 mM sucrose and 150 mM NaCl. Homogenization was repeated (15 strokes) and the suspension was centrifuged again and the decanted supernatant was stored at −20° C. The pellet was resuspended with 2 times the original pellet volume in lysis buffer containing 150 mM NaCl and 1% Triton X-100. The suspension was nutated for 20 min and then homogenized with 5 strokes. Subsequently, the suspension was centrifuged at 30,000×g for 1 h and supernatant was decanted and poured into a chromatographic column. Sephadex G-25 (fine) was added in small amounts, allowing approximately 15 min after each addition for complete swelling. Sephadex addition was continued until all liquid was absorbed. The protein was eluted with 1 void volume of lysis buffer and eluate monitored at 280 nm optical density. The chromatographic procedure was repeated and an equal volume of glycerol was added to the final eluate.
Primary assay: After titration, the HSD II prep, generated with the standard protocol, was diluted to the appropriate concentration (generally 1/15 dilution). 55 μl of assay buffer (50 mM Hepes, pH 8.0) was added to all wells of a 96 well plate. 5 μl of 5% DMSO were added to wells A1-C1, A2-C2, F1-H1, and F2-H2. A 10 μl aliquot of a 10 mM solution in DMSO of each compound was diluted in 190 μl of assay buffer. The plate with these compound dilutions was then mixed for 15 min on a shaker and a 5 μl aliquot from each well was added to the […]. This was followed by 10 μl of HSD II enzyme ( 1/15 dilution)/estradiol mix in assay buffer containing 1% Triton X-100. The estradiol […] from a 20 mM estradiol DMSO stock solution, which was diluted 1/20 (50 μl/ml) in 50 mM Hepes buffer containing 1% Triton X-100. All wells, except F1-H1 and F2-H2, also received 10 μl of 25 mg/ml NAD (SIGMA) in 100 mM Hepes, pH 9. The blank wells F1-H1 and F2-H2 received 10 μl of NAD buffer. 20 μl of PMS:MTS solution (100 μl PMS into 1800 μl MTS, Promega) was added to all wells. The plate was covered with aluminum foil and incubated at room temperature for 1.5 h. The plate was analyzed at 490 nm on a Hewlett Pachard 8453 spectrophotometer and results were calculated.

Setting [1] is: read-out: IC50 values ≧2 μM and <10 μM.

Where two headings read alike, the source gives them in different places. Bounds are passed on as bounds.

Compound `COc1ccccc1[C@H]1CC(=O)N(C)[C@H]1[C@H](O)c1ccc(S(=O)(=O)c2ccccc2)s1` (racemic) [Example 91] had a melting point of 160 °C. The IC50 at 17-Beta HSD II Enzyme was < 0.5 µM.
`CN1C(=O)CC(c2ccccc2)C1C(O)Cc1nc(-c2ccccc2)cs1` (stereo not drawn) [Example 138] registered a melting point of 189 °C. Also, at 17-Beta HSD II Enzyme (setting [1]), the IC50 lay within 2 to 10 µM.
Turning to `CN1C(=O)C[C@H](c2ccccc2F)[C@@H]1[C@H](O)c1cccc(Cl)c1` [Example 154], the melting point was 184 to 185 °C. Besides, on 17-Beta HSD II Enzyme, the IC50 was < 0.5 µM.
The compound `CN1C(=O)C[C@H](c2ccccc2)[C@@H]1[C@H](O)c1ccc(-c2ccc[n+]([O-])c2)s1` [Example 26, (4R,5R)-5-{(S)-hydroxy[5-(1-oxido-3-pyridinyl)-2-thienyl]methyl}-1-methyl-4-phenyl 2-pyrrolidinone] gave a melting point of 138 to 140 °C. For the same compound, the IC50 on 17-Beta HSD II Enzyme is < 0.5 µM.
For `Cc1ccc(C)n1-c1cccc(C#C[C@@H](O)[C@H]2[C@@H](c3ccccc3)CC(=O)N2C)c1` (racemic) [Example 131] the same measures were 175 to 176 °C and < 0.5 µM.
The compound `CN1C(=O)C[C@H](c2ccccc2)[C@@H]1[C@H](O)c1cccc(-c2ccc(F)cc2)c1` (racemic) [Example 104] gave a melting point of 210 °C. Moreover, the IC50 at 17-Beta HSD II Enzyme (setting [1]) was in the range of 2 to 10 µM.
Regarding `CN(C)c1cccc(-c2ccc(C(O)C3C(c4ccccc4)CC(=O)N3C)s2)c1` (stereo not drawn) [Example 74], the melting point is 193 °C. The IC50 on 17-Beta HSD II Enzyme is < 0.5 µM.
In the case of `CN1C(=O)C[C@H](c2ccccc2)[C@@H]1[C@H](O)c1csc2ccccc12` (racemic) [Example 54], the melting point was > 210 °C. The IC50 at 17-Beta HSD II Enzyme (setting [1]) fell in the range of 2 to 10 µM.
For `COc1cccc(-c2ccc(C(O)C3C(c4ccccc4)CC(=O)N3C)o2)c1` (stereo not drawn) [Example 120] the same measures were 157 °C and 2 to 10 µM.
Turning to `CN1C(=O)C[C@H](c2ccccc2F)[C@@H]1[C@H](O)c1ccc(-c2ccccn2)s1` [Example 153], the melting point lay in the range of 213 to 215 °C. Further, the IC50 on 17-Beta HSD II Enzyme was < 0.5 µM.
Consider `CN1C(=O)C[C@H](c2ccccc2)[C@@H]1[C@H](O)c1cccc2ccccc12` (racemic) [Example 94], for which the melting point is 255 to 256 °C. In addition, the IC50 at 17-Beta HSD II Enzyme (setting [1]) lay within 2 to 10 µM.
For the compound `CN1C(=O)CC(c2ccccc2)C1C(O)c1ccc(S(=O)(=O)c2ccccc2)s1` (stereo not drawn) [Example 70], the melting point is 247 °C. Besides, the IC50 on 17-Beta HSD II Enzyme is < 0.5 µM.
As for `CN1C(=O)CC(c2ccccc2)C1C(O)c1ccc(-c2ccc(C(=O)O)cc2)s1` (stereo not drawn) [Example 68], the melting point was 232 °C (dec.). Also, the IC50 on 17-Beta HSD II Enzyme was < 0.5 µM.
Regarding `CN1C(=O)C[C@H](c2ccccc2F)[C@@H]1[C@H](O)c1ccc(-c2cccnc2)s1` [Example 151], the melting point lay within 195 to 197 °C. The IC50 on 17-Beta HSD II Enzyme was < 0.5 µM.
Compound `CN1C(=O)CC(c2ccccc2)C1C(O)c1ccc(-c2ccccc2)o1` (stereo not drawn) [Example 117] returned a melting point of 184 °C. The IC50 at 17-Beta HSD II Enzyme (setting [1]) is 2 to 10 µM.
For `CN1C(=O)CC(c2ccccc2)C1C(O)c1ccc(-c2cccc(F)c2)o1` (stereo not drawn) [Example 122] the same measures were 180 °C and 2 to 10 µM.
Turning to `CN1C(=O)CC(c2ccccc2)C1C(O)c1ccc(CCc2ccc(F)cc2)s1` (stereo not drawn) [Example 57], the melting point was in the range of 123 to 125 °C. Moreover, on 17-Beta HSD II Enzyme, the IC50 was < 0.5 µM.
For the compound `CN1C(=O)C[C@H](c2ccccc2)[C@@H]1[C@H](O)c1ccc(-c2ccc(C(=O)O)cc2)o1` (racemic) [Example 118], the melting point was determined as 194 °C. For the same compound, on 17-Beta HSD II Enzyme (setting [1]), the IC50 was in the range of 2 to 10 µM.
Compound `CN1C(=O)C[C@H](c2ccccc2)[C@@H]1[C@H](O)c1cccc(-c2ccccc2)c1` (racemic) [Example 98] showed a melting point of 173 to 176 °C. Also, the IC50 on 17-Beta HSD II Enzyme is < 0.5 µM.
`CN1C(=O)C[C@H](c2ccccc2)[C@@H]1[C@H](OCc1ccccc1)c1cccs1` [Example 140] had a melting point of 129 to 130 °C. Moreover, the IC50 on 17-Beta HSD II Enzyme (setting [1]) lay in the range of 2 to 10 µM.
The compound `CN1C(=O)C[C@H](c2ccccc2F)[C@@H]1[C@H](O)c1cccs1` [Example 150] registered a melting point of 212 °C. Further, the IC50 on 17-Beta HSD II Enzyme was < 0.5 µM.
For `CN1C(=O)C[C@H](c2ccccc2F)[C@@H]1[C@H](O)c1ccc(-c2ccccc2)s1` (racemic) [Example 83] the same measures were 219 to 220 °C (dec.) and < 0.5 µM.
Consider `CN1C(=O)C[C@H](c2ccccc2)[C@@H]1[C@H](O)C#Cc1ccc(-c2ccccc2)cc1` (racemic) [Example 136], for which the melting point fell in the range of 217 to 218 °C. Further, the half-maximal inhibitory concentration (IC50) on 17-Beta HSD II Enzyme (setting [1]) fell in the range of 2 to 10 µM.
Taken in the same sequence, the figures for `CN(C)c1ccc(-c2ccc([C@@H](O)[C@H]3[C@@H](c4ccccc4)CC(=O)N3C)s2)cc1F` (racemic) [Example 28] were 173 °C and 2 to 10 µM.
With `CN1C(=O)C[C@H](c2ccccc2)[C@@H]1[C@H](O)c1ccc(-c2ccccc2)s1` [Example 145], the melting point is 216 °C (dec.). In addition, at 17-Beta HSD II Enzyme, the IC50 was < 0.5 µM.
In turn, `CSc1ccc(-c2ccc([C@@H](O)[C@H]3[C@@H](c4ccccc4)CC(=O)N3C)s2)cc1` (racemic) [Example 69] registered a melting point of 187 °C. Further, the IC50 on 17-Beta HSD II Enzyme (setting [1]) lay in the range of 2 to 10 µM.
In turn, `CN1C(=O)C[C@H](c2ccccc2)[C@@H]1[C@H](O)c1cccc(-c2cccc([N+](=O)[O-])c2)c1` (racemic) [Example 106] came in with a melting point of 183 °C. Besides, at 17-Beta HSD II Enzyme (setting [1]), the IC50 is 2 to 10 µM.
Consider `CSc1ccc(-c2ccc([C@@H](O)[C@H]3[C@@H](c4ccccc4)CC(=O)N3C)o2)cc1` (racemic) [Example 116], for which the melting point is 183 °C. Further, the IC50 on 17-Beta HSD II Enzyme (setting [1]) was in the range of 2 to 10 µM.
`CN1C(=O)CC(c2ccccc2)C1C(O)c1ccc(S(=O)(=O)c2ccc(Cl)cc2)s1` (racemic) [Example 62] yielded a melting point of 207 to 208 °C. Further, the IC50 on 17-Beta HSD II Enzyme is < 0.5 µM.
For the compound `CN1C(=O)CC(c2ccccc2)C1C(O)c1ccc(Sc2ccccc2)s1` (stereo not drawn) [Example 66], the melting point came to 172 °C. On 17-Beta HSD II Enzyme, the IC50 is < 0.5 µM.
For `COc1cccc(-c2ccc(C(O)C3C(c4ccccc4)CC(=O)N3C)s2)c1` (racemic) [Example 31] the same measures were 128 °C and < 0.5 µM.
With `CN1C(=O)C[C@H](c2ccccc2)[C@@H]1[C@H](O)c1ccc(-c2cccs2)s1` (racemic) [Example 29], the melting point was 152 °C. For the same compound, the IC50 at 17-Beta HSD II Enzyme was < 0.5 µM.
The compound `COc1ccccc1C1CC(=O)N(C)C1C(O)c1ccc(S(=O)(=O)c2ccc(Cl)cc2)s1` (stereo not drawn) [Example 92] came in with a melting point of 220 °C. At 17-Beta HSD II Enzyme, the IC50 is < 0.5 µM.
Regarding `COc1ccc(S(=O)(=O)c2ccc([C@@H](O)[C@H]3[C@@H](c4ccccc4)CC(=O)N3C)s2)cc1` (racemic) [Example 58], the melting point lay in the range of 203 to 205 °C. In addition, the IC50 on 17-Beta HSD II Enzyme is < 0.5 µM.
`CN1C(=O)CC(c2ccccc2)C1C(O)c1ccc(-c2cccnc2)s1` (racemic) [Example 78] registered a melting point of 210 °C. Also, the IC50 on 17-Beta HSD II Enzyme is < 0.5 µM.
Compound `CN1C(=O)CC(c2ccccc2)C1C(O)c1ccc(-c2cccc([N+](=O)[O-])c2)s1` (racemic) [Example 44] gave a melting point of 150 °C. Further, the IC50 on 17-Beta HSD II Enzyme is < 0.5 µM.

The record behind these values is patent US6784167B2, “17-beta-hydroxysteroid dehydrogenase-II inhibitors” (Bayer Pharmaceuticals Corporation, priority 2000, dated 2004).
